Laboratory results: ChEMBL document CHEMBL4417633, “Inhibitory polypeptides specific to WNT inhibitors” (2017)
Where a SMILES comes first, the peptide text is derived from it.

How the values were obtained:
[1] = biological target: T1, Dickkopf WNT-signaling pathway inhibitor 1 (Rattus norvegicus, UniProt A6I0Z0); experiment: Inhibition of biotin-labeled rat recombinant DKK1 assessed as reduction in DKK1 interaction with LRP-6/Fc incubated overnight by chemiluminescence based Alpha-screen assay
T1 sequence (A6I0Z0 whole entry): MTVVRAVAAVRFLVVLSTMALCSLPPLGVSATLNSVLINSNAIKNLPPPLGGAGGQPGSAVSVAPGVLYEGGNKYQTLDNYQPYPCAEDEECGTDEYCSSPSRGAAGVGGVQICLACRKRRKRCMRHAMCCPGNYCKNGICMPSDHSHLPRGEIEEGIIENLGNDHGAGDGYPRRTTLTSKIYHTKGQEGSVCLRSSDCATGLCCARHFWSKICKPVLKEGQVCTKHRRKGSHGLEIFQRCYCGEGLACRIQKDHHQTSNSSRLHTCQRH

[2] = biological target: T2, Dickkopf-related protein 1 (Homo sapiens, UniProt O94907); experiment: Inhibition of biotin-labeled human recombinant DKK1 assessed as reduction in DKK1 interaction with LRP-6/Fc incubated overnight by chemiluminescence based Alpha-screen assay
T2 sequence (O94907 whole entry): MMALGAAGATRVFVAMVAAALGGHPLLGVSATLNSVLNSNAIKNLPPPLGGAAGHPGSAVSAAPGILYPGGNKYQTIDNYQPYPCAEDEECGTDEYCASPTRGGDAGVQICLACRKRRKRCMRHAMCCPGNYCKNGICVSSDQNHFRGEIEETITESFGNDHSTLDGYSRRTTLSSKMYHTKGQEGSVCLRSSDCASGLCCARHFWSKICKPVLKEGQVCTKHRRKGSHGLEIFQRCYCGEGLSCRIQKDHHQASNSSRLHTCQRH

Row | Compound | IC50 [1] [nM] | IC50 [2] [nM]
1 | CC[C@H](C)[C@H](NC(=O)[C@H](CC(N)=O)NC(=O)CNC(=O)[C@H](CS)NC(=O)[C@H](CCC(N)=O)NC(=O)[C@H](Cc1ccccc1)NC(=O)[C@H](Cc1ccc(O)cc1)NC(=O)[C@H](CO)NC(=O)[C@@H]1CCCN1C(=O)[C@@H]1CCCN1C(=O)[C@@H](N)CS)C(=O)N[C@@H](CC(N)=O)C(=O)N[C@@H](Cc1cnc[nH]1)C(=O)N[C@@H](CS)C(=O)N[C@@H](Cc1ccc(O)cc1)C(=O)N1CCC[C@H]1C(=O)N[C@@H](CCSC)C(=O)N[C@@H](CCC(=O)O)C(=O)N[C@@H](Cc1c[nH]c2ccccc12)C(=O)N[C@@H](CCCNC(=N)N)C(=O)N[C@@H](CS)C(=O)N[C@@H](CC(=O)O)C(=O)NCC(=O)N[C@@H](Cc1ccccc1)C(=O)N[C@@H](Cc1cnc[nH]1)C(=O)N[C@@H](CC(=O)O)C(=O)N[C@@H](CS)C(=O)N[C@H](C(=O)N[C@@H](CC(=O)O)C(=O)NCC(=O)N[C@@H](CO)C(=O)N[C@@H](CC(=O)O)C(=O)N[C@@H](CCC(=O)O)C(=O)N[C@@H](CCC(N)=O)C(=O)NCC(=O)N[C@@H](CS)C(=O)N1CCC[C@H]1C(=O)N[C@@H](Cc1ccc(O)cc1)C(=O)N[C@@H](CCCNC(=N)N)C(=O)N[C@H](C(=O)O)[C@@H](C)O)C(C)C (H-CPPSYFQCGNINHCYPMEWRCDGFHDCVDGSDEQGCPYRT-OH) | ≤ 1 | ≤ 1
2 | CSCC[C@H](NC(=O)[C@@H]1CCCN1C(=O)[C@H](Cc1ccc(O)cc1)NC(=O)[C@H](CS)NC(=O)[C@H](Cc1cnc[nH]1)NC(=O)[C@H](CC(N)=O)NC(=O)[C@H](CCCNC(=N)N)NC(=O)[C@H](Cc1cnc[nH]1)NC(=O)[C@H](CCCNC(=N)N)NC(=O)[C@H](CS)NC(=O)[C@H](CCCCN)NC(=O)[C@H](Cc1ccccc1)NC(=O)[C@H](Cc1ccc(O)cc1)NC(=O)[C@H](CO)NC(=O)[C@@H](NC(=O)[C@@H]1CCCN1C(=O)[C@@H](N)CS)C(C)C)C(=O)N[C@@H](CCC(=O)O)C(=O)N[C@@H](Cc1c[nH]c2ccccc12)C(=O)N[C@@H](CCCNC(=N)N)C(=O)N[C@@H](CS)C(=O)N[C@@H](CC(=O)O)C(=O)NCC(=O)N[C@@H](Cc1ccccc1)C(=O)N1CCC[C@H]1C(=O)N[C@@H](CC(=O)O)C(=O)N[C@@H](CS)C(=O)N[C@@H](CC(=O)O)C(=O)N[C@@H](CC(=O)O)C(=O)NCC(=O)N[C@@H](CO)C(=O)N[C@@H](CC(=O)O)C(=O)N[C@@H](CCC(=O)O)C(=O)N[C@@H](CCCNC(=N)N)C(=O)NCC(=O)N[C@@H](CS)C(=O)N1CCC[C@H]1C(=O)N[C@@H](Cc1ccc(O)cc1)C(=O)N[C@@H](CCCNC(=N)N)C(=O)N[C@H](C(=O)O)[C@@H](C)O (H-CPVSYFKCRHRNHCYPMEWRCDGFPDCDDGSDERGCPYRT-OH) | ≤ 1 | ≤ 1
3 | CSCC[C@H](NC(=O)[C@H](Cc1ccccc1)NC(=O)[C@H](CCC(=O)O)NC(=O)[C@H](CC(N)=O)NC(=O)[C@H](CCCNC(=N)N)NC(=O)[C@@H]1CCCN1C(=O)[C@@H](N)CS)C(=O)N[C@@H](CS)C(=O)N[C@@H](C)C(=O)N[C@@H](CC(=O)O)C(=O)N[C@@H](CCCCN)C(=O)N[C@@H](CCSC)C(=O)N[C@@H](CS)C(=O)N[C@@H](Cc1ccccc1)C(=O)N1CCC[C@H]1C(=O)N[C@H](C(=O)N[C@@H](CO)C(=O)N[C@@H](Cc1ccccc1)C(=O)N[C@@H](CC(C)C)C(=O)N[C@@H](CS)C(=O)N[C@@H](CC(=O)O)C(=O)NCC(=O)N[C@@H](CCC(=O)O)C(=O)N[C@@H](CC(N)=O)C(=O)N[C@@H](CC(=O)O)C(=O)N[C@@H](CS)C(=O)N[C@@H](CCC(=O)O)C(=O)N[C@@H](CC(=O)O)C(=O)NCC(=O)N[C@@H](CO)C(=O)N[C@@H](CC(=O)O)C(=O)N[C@@H](CCC(=O)O)C(=O)N[C@@H](CC(=O)O)C(=O)N[C@@H](Cc1ccc(O)cc1)C(=O)N[C@@H](CS)C(=O)N1CCC[C@H]1C(=O)N[C@@H](CO)C(=O)N[C@@H](CCCNC(=N)N)C(=O)N[C@H](C(=O)O)[C@@H](C)O)C(C)C (H-CPRNEFMCADKMCFPVSFLCDGENDCEDGSDEDYCPSRT-OH) | ≤ 1 | ≤ 1

Further lines, results first:

Row | IC50 [1] [nM] | IC50 [2] [nM] | Compound
4 | ≤ 1 | ≤ 1 | CSCC[C@H](NC(=O)[C@H](CS)NC(=O)[C@H](CCC(N)=O)NC(=O)[C@H](Cc1ccccc1)NC(=O)[C@H](Cc1ccc(O)cc1)NC(=O)[C@H](CO)NC(=O)[C@H](C)NC(=O)[C@@H]1CCCN1C(=O)[C@@H](N)CS)C(=O)N[C@@H](CC(N)=O)C(=O)N[C@@H](Cc1cnc[nH]1)C(=O)N[C@@H](CC(N)=O)C(=O)N[C@@H](Cc1cnc[nH]1)C(=O)N[C@@H](CS)C(=O)N[C@@H](Cc1ccc(O)cc1)C(=O)N1CCC[C@H]1C(=O)N[C@@H](CCSC)C(=O)N[C@@H](CCC(=O)O)C(=O)N[C@@H](Cc1c[nH]c2ccccc12)C(=O)N[C@@H](CCCNC(=N)N)C(=O)N[C@@H](CS)C(=O)N[C@@H](CC(=O)O)C(=O)NCC(=O)N[C@@H](Cc1ccccc1)C(=O)N1CCC[C@H]1C(=O)N[C@@H](CC(=O)O)C(=O)N[C@@H](CS)C(=O)N[C@@H](CCC(=O)O)C(=O)N[C@@H](CC(=O)O)C(=O)NCC(=O)N[C@@H](CO)C(=O)N[C@@H](CC(=O)O)C(=O)N[C@@H](CCC(=O)O)C(=O)N[C@@H](CCCCN)C(=O)NCC(=O)N[C@@H](CS)C(=O)N1CCC[C@H]1C(=O)N[C@@H](Cc1ccc(O)cc1)C(=O)N[C@@H](CCCNC(=N)N)C(=O)N[C@H](C(=O)O)[C@@H](C)O (H-CPASYFQCMNHNHCYPMEWRCDGFPDCEDGSDEKGCPYRT-OH)
5 | ≤ 1 | ≤ 1 | CC[C@H](C)[C@H](NC(=O)[C@H](CCCNC(=N)N)NC(=O)[C@H](CS)NC(=O)[C@H](CCC(N)=O)NC(=O)[C@H](Cc1ccccc1)NC(=O)[C@H](Cc1ccc(O)cc1)NC(=O)[C@H](CO)NC(=O)[C@@H](NC(=O)[C@@H]1CCCN1C(=O)[C@@H](N)CS)C(C)C)C(=O)N[C@@H](Cc1ccc(O)cc1)C(=O)N[C@@H](CC(N)=O)C(=O)N[C@@H](Cc1cnc[nH]1)C(=O)N[C@@H](CS)C(=O)N[C@@H](Cc1ccc(O)cc1)C(=O)N1CCC[C@H]1C(=O)N[C@@H](CCSC)C(=O)N[C@@H](CCC(=O)O)C(=O)N[C@@H](Cc1c[nH]c2ccccc12)C(=O)N[C@@H](CCCNC(=N)N)C(=O)N[C@@H](CS)C(=O)N[C@@H](CC(=O)O)C(=O)NCC(=O)N[C@@H](Cc1ccccc1)C(=O)N[C@@H](CCC(=O)O)C(=O)N[C@@H](CC(=O)O)C(=O)N[C@@H](CS)C(=O)N[C@H](C(=O)N[C@@H](CC(=O)O)C(=O)NCC(=O)N[C@@H](CO)C(=O)N[C@@H](CC(=O)O)C(=O)N[C@@H](CCC(=O)O)C(=O)N[C@@H](CCCCN)C(=O)NCC(=O)N[C@@H](CS)C(=O)N1CCC[C@H]1C(=O)N[C@@H](Cc1ccc(O)cc1)C(=O)N[C@@H](CCCNC(=N)N)C(=O)N[C@H](C(=O)O)[C@@H](C)O)C(C)C (H-CPVSYFQCRIYNHCYPMEWRCDGFEDCVDGSDEKGCPYRT-OH)
6 | ≤ 1 | ≤ 1 | CC[C@H](C)[C@H](NC(=O)[C@H](CCCCN)NC(=O)[C@H](CC(=O)O)NC(=O)[C@H](C)NC(=O)[C@H](CS)NC(=O)[C@H](CCSC)NC(=O)[C@H](Cc1ccccc1)NC(=O)[C@H](CCC(=O)O)NC(=O)[C@H](CC(N)=O)NC(=O)[C@H](CO)NC(=O)[C@@H]1CCCN1C(=O)[C@@H](N)CS)C(=O)N[C@@H](CS)C(=O)N[C@@H](Cc1ccccc1)C(=O)N1CCC[C@H]1C(=O)N[C@@H](CC(C)C)C(=O)N[C@@H](CO)C(=O)N[C@@H](Cc1ccccc1)C(=O)N[C@@H](CC(C)C)C(=O)N[C@@H](CS)C(=O)N[C@@H](CC(=O)O)C(=O)NCC(=O)N[C@@H](CCC(=O)O)C(=O)N[C@@H](CC(N)=O)C(=O)N[C@@H](CC(=O)O)C(=O)N[C@@H](CS)C(=O)N[C@@H](CC(C)C)C(=O)N[C@@H](CC(=O)O)C(=O)NCC(=O)N[C@@H](CO)C(=O)N[C@@H](CC(=O)O)C(=O)N[C@@H](CCC(=O)O)C(=O)N[C@@H](CC(=O)O)C(=O)N[C@@H](Cc1ccc(O)cc1)C(=O)N[C@@H](CS)C(=O)N1CCC[C@H]1C(=O)N[C@@H](CO)C(=O)N[C@@H](CCCNC(=N)N)C(=O)N[C@H](C(=O)O)[C@@H](C)O (H-CPSNEFMCADKICFPLSFLCDGENDCLDGSDEDYCPSRT-OH)
7 | ≤ 1 | ≤ 1 | CSCC[C@H](NC(=O)[C@@H]1CCCN1C(=O)[C@H](Cc1ccc(O)cc1)NC(=O)[C@H](CS)NC(=O)[C@H](Cc1cnc[nH]1)NC(=O)[C@H](CCCCN)NC(=O)[C@H](Cc1ccc(O)cc1)NC(=O)[C@H](CC(N)=O)NC(=O)CNC(=O)[C@H](CS)NC(=O)[C@H](CCC(N)=O)NC(=O)[C@H](Cc1ccccc1)NC(=O)[C@H](Cc1ccc(O)cc1)NC(=O)[C@H](CO)NC(=O)[C@H](C)NC(=O)[C@@H]1CCCN1C(=O)[C@@H](N)CS)C(=O)N[C@@H](CCC(=O)O)C(=O)N[C@@H](Cc1c[nH]c2ccccc12)C(=O)N[C@@H](Cc1cnc[nH]1)C(=O)N[C@@H](CS)C(=O)N[C@@H](CC(=O)O)C(=O)NCC(=O)N[C@@H](Cc1ccccc1)C(=O)N[C@@H](CCC(N)=O)C(=O)N[C@@H](CC(=O)O)C(=O)N[C@@H](CS)C(=O)N[C@H](C(=O)N[C@@H](CC(=O)O)C(=O)NCC(=O)N[C@@H](CO)C(=O)N[C@@H](CC(=O)O)C(=O)N[C@@H](CCC(=O)O)C(=O)N[C@@H](CCCCN)C(=O)N[C@@H](C)C(=O)N[C@@H](CS)C(=O)N1CCC[C@H]1C(=O)N[C@@H](Cc1ccc(O)cc1)C(=O)N[C@@H](CCCNC(=N)N)C(=O)N[C@H](C(=O)O)[C@@H](C)O)C(C)C (H-CPASYFQCGNYKHCYPMEWHCDGFQDCVDGSDEKACPYRT-OH)
